The text below walks through data of patent publication US11529295B2, “Oral care composition” (Church & Dwight Co., Inc., priority 2019, dated 2022).

A short description of this experiment: Fluoride Uptake Study, FDA monograph evaluation (FDA Method #40). Set-up: species or system bovine. The note with it: comparison between formulas, Tables 2 and 3. The procedure: Formulas 1 and 2, according to Example 1 above, are assessed by Fluoride Uptake Study, FDA monograph evaluation (FDA Method #40). A Control Formula, Placebo Formula, and USP Toothpaste Standard Formula are also assessed for comparison.
Sound, upper, central, bovine incisors were selected and cleaned of all adhering soft tissue. A core of enamel 3 mm in diameter was prepared from each tooth by cutting perpendicular to the labial surface with a hollow-core diamond drill bit. This was performed under water to prevent overheating of the specimens. Each specimen was embedded in the end of a plexiglass rod (114″ diameter×2″ long) using methylmethacrylate. […]
Each enamel specimen was then etched by immersion into 0.5 ml of 1M HC104 for 15 seconds. […] A sample of each solution was then buffered with TISAB to a pH of 5.2 (0.25 ml sample, 0.5 ml TISAB and 0.25 ml IN NaOH) and the fluoride content determined by comparison to a similarly prepared standard curve (1 ml std and 1 ml TISAB). For use in depth of etch calculation, the Ca content of the etch solution was determined by taking 50μl and analyzing for Ca by atomic absorption (0.05 ml qs to 5 ml). […]
The treatments were performed using supernatants of the dentifrice slurries. […] One layer of enamel was then removed from each specimen and analyzed for fluoride and calcium as outlined above (i.e., 15 second etch). […]

As to `O.O.O.O=C([O-])CC(O)(CC(=O)[O-])C(=O)[O-].O=C([O-])CC(O)(CC(=O)[O-])C(=O)[O-].[Zn+2].[Zn+2].[Zn+2]` [zinc citrate trihydrate], the “enamel fluoride uptake, comparison in words” value is listed as “will not have a significant negative impact on Enamel Fluoride Uptake”.
